# Experimental data taken from ChEMBL document CHEMBL3045044, “Further derivatives of 4-benzoyl-1,5-diphenyl-1H-pyrazole-3-carboxylic acid and their antibacterial activities” (2007).
# The source made the active and inactive calls. The calls are words filed in the database; no cut-off is given here.
# Key:
# Type in all cases: functional
# Salmonella enteritidis = assay: Antibacterial activity against Salmonella enterica subsp. enterica serovar Enteritidis ATCC 1376 after overnight incubation by microdilution method
# Bacillus subtilis = assay: Antibacterial activity against Bacillus subtilis ATCC 6633 after overnight incubation by microdilution method
# Proteus vulgaris = assay: Antibacterial activity against Proteus vulgaris Kukem 1329 after overnight incubation by microdilution method
# Klebsiella pneumoniae = assay: Antibacterial activity against Klebsiella pneumoniae A137 after overnight incubation by microdilution method
# Pseudomonas aeruginosa = assay: Antibacterial activity against Pseudomonas aeruginosa ATCC 9027 after overnight incubation by microdilution method
# Escherichia coli = assay: Antibacterial activity against Escherichia coli B3704 after overnight incubation by microdilution method
# Enterococcus faecalis = assay: Antibacterial activity against Enterococcus faecalis ATCC 29122 after overnight incubation by microdilution method
# Streptococcus pyogenes = assay: Antibacterial activity against Streptococcus pyogenes ATCC 176 after overnight incubation by microdilution method
# Staphylococcus aureus = assay: Antibacterial activity against Staphylococcus aureus ATCC 29213 after overnight incubation by microdilution method
# Xanthomonas campestris = assay: Antibacterial activity against Xanthomonas campestris A235 after overnight incubation by microdilution method
Compound,MIC (Salmonella enteritidis),MIC (Bacillus subtilis),MIC (Proteus vulgaris) [µg/mL],MIC (Klebsiella pneumoniae),MIC (Pseudomonas aeruginosa),MIC (Escherichia coli),MIC (Enterococcus faecalis),MIC (Streptococcus pyogenes),MIC (Staphylococcus aureus),MIC (Xanthomonas campestris) [µg/mL]
O=c1onc(-c2ccccc2)c2c(-c3ccccc3)n(-c3ccccc3)nc12,inactive,inactive,512,inactive,inactive,512 µg/mL,inactive,512 µg/mL,inactive,256
Nc1nnc(-c2ccccc2)c2c(-c3ccccc3)n(-c3ccccc3)nc12,inactive,inactive,512,inactive,32 µg/mL,512 µg/mL,inactive,inactive,inactive,512
O=C(N[C@H](CO)[C@H](O)c1ccc([N+](=O)[O-])cc1)C(Cl)Cl [CHLORAMPHENICOL],24 µg/mL,24 µg/mL,24,12 µg/mL,24 µg/mL,6 µg/mL,12 µg/mL,12 µg/mL,6 µg/mL,12

# Continued, values first:
MIC (Salmonella enteritidis),MIC (Bacillus subtilis),MIC (Proteus vulgaris) [µg/mL],MIC (Klebsiella pneumoniae),MIC (Pseudomonas aeruginosa),MIC (Escherichia coli),MIC (Enterococcus faecalis),MIC (Streptococcus pyogenes),MIC (Staphylococcus aureus),MIC (Xanthomonas campestris) [µg/mL],Compound
inactive,inactive,512,inactive,inactive,inactive,inactive,inactive,inactive,512,O=C(c1ccccc1)c1nn(-c2ccccc2)c(-c2ccccc2)c1C(=O)c1ccccc1
inactive,inactive,512,inactive,inactive,512 µg/mL,inactive,inactive,inactive,512,N#Cc1nn(-c2ccccc2)c(-c2ccccc2)c1C(=O)c1ccccc1
32 µg/mL,inactive,32,32 µg/mL,32 µg/mL,32 µg/mL,inactive,32 µg/mL,32 µg/mL,32,NS(=O)(=O)NC(=O)c1nn(-c2ccccc2)c(-c2ccccc2)c1C(=O)c1ccccc1
